US8586555B2, “Immunomodulatory compositions, formulations, and methods for use thereof” (Dynavax Technologies Corporation, priority 2001, dated 2013)

System: human peripheral blood mononuclear cells (hPBMC)
Assay: human PBMC assay, Example 6
Type: cell-based
Description: Hexameric oligonucleotides were tested for immunomodulatory activity alone and complexed with lactic acid/glycolic acid copolymer microcarrier beads using a human peripheral blood mononuclear cells (hPBMC) assay. Peripheral blood was collected from healthy volunteers by venipuncture using heparinized syringes. Blood was layered onto a FICOLL® (Amersham Pharmacia Biotech) cushion and centrifuged. hPBMCs, located at the FICOLL® interface, were collected, then washed twice with cold phosphate buffered saline (PBS). The cells were resuspended and cultured in 48 well plates at 2×10^6 cells/mL at 37° C. in RPMI 1640 with 10% heat-inactivated human AB serum plus 50 units/mL penicillin, 50 μg/mL streptomycin, 300 μg/mL glutamine, 1 mM sodium pyruvate, and 1×MEM non-essential amino acids (NEAA).
Oligonucleotides were tested as single agents, or in combination with PLGA microspheres (unmodified or cationic). All oligonucleotides contained 100% phosphorothioate linkages and were tested at 20 μg/ml. The PLGA microcarriers were used at 250 μg/ml. When oligos were tested with PLGA microcarriers, the oligo and the microcarriers were added at the same time to the culture. The cells were cultured in the in the presence of test samples for 24 hours, then cell-free medium was collected from each well and assayed for IFN-γ and IFN-α concentration. Two different oligonucleotides were used as controls: a first oligonucleotide known to have immunostimulatory activity (a 22mer oligonucleotide containing an ISS (“ISS+,” 5′-[…]-3′(SEQ ID NO:2)) and a second oligonucleotide of similar sequence but lacking immunostimulatory activity (“ISS−,” 5′-[…]-3′ (SEQ ID NO:1)). SAC (PANSORBIN® CalBiochem, 1/5000 dilution) and a untreated culture were used as additional positive and negative controls, respectively. SAC contains Staph. aureus (Cowan I) cell material. All samples were assayed in duplicate.
IFN-γ and IFN-α were assayed using CYTOSCREEN™ ELISA kits from BioSource International, Inc., according to the manufacturer's instructions.
The immunomodulatory activity of the oligonucleotides used in Examples 3 and 4 was confirmed with the human PBMC assay using PBMCs from an additional four donors (donors 28051-28054). Oligonucleotides were tested alone or in combination with cationic PLGA as described in Example 3, except that 96 well plates were used instead of 48 well plates and the oligonucleotides were premixed with the cationic microspheres at room temperature for 15 minutes before they were added to the culture, rather than being added simultaneously to the culture.
Additional oligonucleotides were tested for immunomodulatory activity in the human PBMC assay. Oligonucleotides were tested alone or in combination with cPLGA as described in Example 5.
Additional oligonucleotides were tested using hPBMCs from volunteers 154-157 using the same assay. Results, which are shown in Table 7, confirm the activity of oligonucleotides fitting the formula 5′-X1TCGX2-3′, where the oligonucleotide is a 3-6mer, X1 is zero or one nucleotide and X2 is zero to three nucleotides.

[1] = delivered as oligonucleotide/MC complex (cPLGA)

Substance	immunomodulatory activity [1]	IFN-α (donor 28075) [pg/mL]	IFN-γ (donor 28075) [pg/mL]	IFN-α (donor 28076) [pg/mL]	IFN-γ (donor 28076) [pg/mL]	IFN-α (donor 28077) [pg/mL]	IFN-γ (donor 28077) [pg/mL]	IFN-α (donor 28078) [pg/mL]	IFN-γ (donor 28078) [pg/mL]	IFN-α Mean (mean of donors 28075-28078) [pg/mL]	IFN-γ Mean (mean of donors 28075-28078) [pg/mL]	IFN-α Mean (mean of volunteers 154-157) [pg/mL]	IFN-γ Mean (mean of volunteers 154-157) [pg/mL]	IFN-α (volunteer 154) [pg/mL]	IFN-γ (volunteer 154) [pg/mL]	IFN-α (volunteer 155) [pg/mL]	IFN-γ (volunteer 155) [pg/mL]	IFN-α (volunteer 156) [pg/mL]	IFN-γ (volunteer 156) [pg/mL]	IFN-α (volunteer 157) [pg/mL]	other results
5′-ACGTTT-3′ [Oligonucleotide 6-13]	inactive	10	8	39	225	28	18	34	15	28	67										immunomodulatory activity (delivered alone): inactive
5′-CCGTTT-3′ [Oligonucleotide 6-14]	inactive	15	11	51	12	9	14	230	11	76	12										immunomodulatory activity (delivered alone): inactive
5′-CGATCG-3′ [Oligonucleotide 6-11]												0	3	0	0	0	0	0	10	0	IFN-γ (volunteer 157): 0 pg/mL
5′-GACGTT-3′ [Oligonucleotide 6-17, reference compound]	largely inactive											0	4	0	0	0	0	0	16	0	IFN-γ (volunteer 157): 0 pg/mL
5′-GCGTTT-3′ [Oligonucleotide 6-15]	inactive	36	11	9	12	35	15	36	11	29	13										immunomodulatory activity (delivered alone): inactive
5′-TCCGGA-3′ [Oligonucleotide 6-18, reference compound]	largely inactive											0	4	0	0	0	0	0	15	0	IFN-γ (volunteer 157): 0 pg/mL
5′-TCG-3′ [Oligonucleotide 3-1]	active in two out of four donors	0	7	0	11	4	12	11	15	4	11										
5′-TCGCGA-3′ [Oligonucleotide 6-10]												0	4	0	0	0	0	0	15	0	IFN-γ (volunteer 157): 0 pg/mL
5′-TCGT-3′ [Oligonucleotide 4-1]	active in two out of four donors	0	9	3	12	0	14	10	14	3	12										
